In ChEMBL document CHEMBL1131516, “Sialyl Lewis X-polysaccharide conjugates: targeting inflammatory lesions” (Bioorg Med Chem Lett, 1998):

Molecular target: T1, E-selectin (Rattus norvegicus, UniProt P98105)
T1 sequence (P98105 whole entry): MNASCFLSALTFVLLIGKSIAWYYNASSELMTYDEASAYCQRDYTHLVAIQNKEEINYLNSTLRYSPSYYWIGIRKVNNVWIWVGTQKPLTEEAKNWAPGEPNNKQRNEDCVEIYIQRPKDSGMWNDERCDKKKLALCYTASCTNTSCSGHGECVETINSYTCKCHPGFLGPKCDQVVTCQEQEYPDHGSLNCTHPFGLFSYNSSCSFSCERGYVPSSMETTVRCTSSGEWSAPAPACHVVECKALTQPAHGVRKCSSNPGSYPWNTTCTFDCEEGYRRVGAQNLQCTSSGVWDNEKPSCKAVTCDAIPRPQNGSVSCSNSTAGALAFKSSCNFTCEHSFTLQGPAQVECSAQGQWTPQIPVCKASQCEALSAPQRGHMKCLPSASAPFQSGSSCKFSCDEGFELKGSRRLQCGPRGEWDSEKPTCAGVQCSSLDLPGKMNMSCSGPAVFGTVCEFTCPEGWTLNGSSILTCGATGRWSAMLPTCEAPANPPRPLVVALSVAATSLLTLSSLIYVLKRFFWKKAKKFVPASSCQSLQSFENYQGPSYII
Assay: Inhibitory concentration against Selectin E expressed at the inflammatory lesion was measured by inhibition of leukocyte rolling in the inflammatory model using IL-lbeta activated rat mesentery venules. (In vivo )
Assay type: organism-based

CCOCCOCCOCCOCCOCCO[C@@H]1O[C@@H](CO)[C@@H](O[C@@H]2O[C@@H](CO)[C@H](O)[C@H](O[C@]3(C(=O)O)C[C@@H](O)[C@@H](NC(C)=O)[C@H]([C@H](O)[C@H](O)CO)O3)[C@@H]2O)[C@H](O[C@@H]2O[C@@H](C)[C@@H](O)[C@H](O)[C@@H]2O)[C@@H]1NC(C)=O
IC50: 2630 nM
